In assay [1] the target is DYRK1A kinase (Homo sapiens, UniProt Q13627). Put plainly: DYRK1A kinase activity (Ser/Thr 18 peptide Z-lyte FRET assay).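 Also: kinase activity read as coumarin/fluorescein emission ratio after development step, with unphosphorylated and phosphorylated peptide forms setting 0% and 100% controls, values from dose-response curves.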 The class given is biochemical. As to conditions: recombinant DYRK1A, 30 μM ATP, one hour at room temperature.
Assay [2] concerns α-smooth muscle actin (aSMA) positive LL29 cells. In words: Inhibition of the fibrotic process: αSMA staining in TGF-β1 treated LL29 fibroblasts from IPF patients. The conditions noted are these: Homo sapiens, Fibroblast; for EC50: 96 h; for inhibition at 10 µM: read-out: percentage in parentheses after EC50 >10.
Assay [3] deals with SW480 colon carcinoma cells. Put plainly: Cell viability assay (CellTiter-Glo). As to conditions: Homo sapiens; for EC50: SW480, 96 h; for inhibition at 10 µM: SW480, read-out: percent inhibition at 10 μM. On the technique in general: ATP-based viability assays read luminescence as a measure of living cells.
Assay [4] has as its system secreted cytokines TNFα, IL-6 and KC-GRO. Put plainly: Secreted cytokines in Lipopolysaccharide-stimulated BV-2 cells (Table 9 does not say which cytokine). The class given is cell-based, mouse. As to conditions: Mus musculus, BV-2, 5 h; read-out: EC50.
The target in assay [5] is GSK3β kinase (Homo sapiens, UniProt P49841). In words: GSK3β kinase activity (Ser/Thr 09 peptide Z-lyte FRET assay). The class given is biochemical. As to conditions: recombinant kinase, 46 μM ATP, one hour at room temperature; read-out: EC50.
In assay [6] the test system is IL-6. In words: IL-6 inhibition in LPS-stimulated human peripheral blood mononuclear cells (HTRF). The conditions noted are these: Homo sapiens, PBMC; for EC50: 22 h; for inhibition at 10 µM: read-out: percentage in parentheses after EC50 >10. A general note: TR-FRET usually uses a lanthanide donor and a delayed reading to cut background.
Assay [7] relates to Wnt-responsive Sp5-Luc reporter in SW480 colon carcinoma cells. In words: Screening assay for Wnt activity (Sp5-Luc reporter gene assay). As to conditions: Homo sapiens; for EC50: SW480; for inhibition at 10 µM: SW480, read-out: percent inhibition at 10 μM.

The term EC50 denotes the concentration giving half of the maximal effect.

Chain of GSK3β kinase (P49841 whole entry): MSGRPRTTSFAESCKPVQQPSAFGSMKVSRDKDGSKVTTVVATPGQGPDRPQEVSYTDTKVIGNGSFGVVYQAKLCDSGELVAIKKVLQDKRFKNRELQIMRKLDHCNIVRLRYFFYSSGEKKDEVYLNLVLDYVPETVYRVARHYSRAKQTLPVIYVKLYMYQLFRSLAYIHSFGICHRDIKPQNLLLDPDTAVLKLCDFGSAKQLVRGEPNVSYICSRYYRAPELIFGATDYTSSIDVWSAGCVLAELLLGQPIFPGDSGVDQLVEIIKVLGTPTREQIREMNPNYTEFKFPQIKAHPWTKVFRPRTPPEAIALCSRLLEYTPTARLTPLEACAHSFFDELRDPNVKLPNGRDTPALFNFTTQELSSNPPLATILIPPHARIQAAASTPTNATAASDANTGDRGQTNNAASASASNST

Consider `Cn1ncc(-c2ccc3cnc(NC(=O)c4ccnc(N5CCOCC5)c4)cc3n2)c1CN1CCOCC1` [Compound 314, N-(2-(1-Methyl-5-(morpholinomethyl)-1H-pyrazol-4-yl)-1,6-naphthyridin-7-yl)-2-morpholinoisonicotinamide], for which the EC50 is 8 nM in assay [1]; 989 nM in assay [2]; 441 nM in assay [3]; 138 nM in assay [4]; 2610 nM in assay [5]; more than 10000 nM in assay [6]. The compound also came in with a 50% effective concentration (EC50) in assay [7] of 368 nM. Also, the inhibition at 10 µM in assay [6] was found to be 47.6%.
Turning to `Cn1cnnc1-c1ccc2cnc(NC(=O)C3CCN(CCC(F)(F)F)CC3)nc2c1` [Compound 1297, N-(7-(4-Methyl-4H-1,2,4-triazol-3-yl)quinazolin-2-yl)-1-(3,3,3-trifluoropropyl)piperidine-4-carboxamide], the EC50 in assay [1] was 57 nM; in assay [2], more than 10000 nM; in assay [3] it was more than 10000 nM; in assay [4] it was not below 10000 nM; in assay [5], 38 nM; in assay [6], more than 10000 nM. Further, the EC50 in assay [7] is more than 10000 nM. In addition, the inhibition at 10 µM in assay [2] came out at 42.1%; in assay [3] it was 35.1%; in assay [6] it was 4.3%; in assay [7] it was 39.2%.
Turning to `Cc1ncc(-c2cnc3cnc(NC(=O)C4CCN(C5COC5)CC4)cc3c2)s1` [Compound 4622, N-(3-(2-methylthiazol-5-yl)-1,7-naphthyridin-6-yl)-1-(oxetan-3-yl)piperidine-4-carboxamide], the EC50 in assay [1] was 40 nM; in assay [2], more than 10000 nM; in assay [3] it was more than 10000 nM; in assay [4], 1400 nM; in assay [5] it was 4630 nM; in assay [6], more than 10000 nM. Also, the concentration for a half-maximal effect (EC50) in assay [7] is more than 10000 nM. Besides, the inhibition at 10 µM in assay [2] amounted to 29.4%; in assay [3], 27.9%; in assay [6], 2.3%; in assay [7], 50%.
Turning to `Cn1cncc1-c1cc2cc(NC(=O)c3ccc(F)cc3)ncc2cn1` [Compound 4075, 4-Fluoro-N-(6-(1-methyl-1H-imidazol-5-yl)-2,7-naphthyridin-3-yl) benzamide], the EC50 in assay [1] was 8 nM; in assay [2], more than 10000 nM; in assay [3], more than 10000 nM; in assay [4] it was not below 10000 nM; in assay [5] it was 966 nM; in assay [6], more than 10000 nM. The compound also gave an EC50 in assay [7] of 5600 nM. The inhibition at 10 µM worked out at 39.2% in assay [2], 35.4% in assay [3] and 8.1% in assay [6].
`Cn1cncc1-c1ccc2cnc(NC(=O)c3ccc4c(c3)CNC4)nc2c1` [Compound 1383, N-(7-(1-Methyl-1H-imidazol-5-yl)quinazolin-2-yl)isoindoline-5-carboxamide]: the EC50 is 2 nM in assay [1]; 3290 nM in assay [2]; more than 10000 nM in assay [3]; 6800 nM in assay [4]; 453 nM in assay [5]; more than 10000 nM in assay [6]. In assay [7], this compound displayed an EC50 of more than 10000 nM. Also, the figures for the inhibition at 10 µM in assay [3], in assay [6] and in assay [7] were 26.1%, 3.1% and 15.9%, respectively.
`CN1CC=C(c2cc(C(=O)Nc3ncc4ccc(-c5cncc(NC(C)(C)C)n5)cc4n3)ccn2)CC1` [Compound 1773, N-(7-(6-(tert-Butylamino)pyrazin-2-yl)quinazolin-2-yl)-1′-methyl-1′,2′,3′,6′-tetrahydro-[2,4′-bipyridine]-4-carboxamide]: the concentration giving a half-maximal response (EC50) in assay [1] was 1 nM; in assay [2] it was 163 nM; in assay [3], 95 nM; in assay [4], 5 nM; in assay [5], 995 nM; in assay [6] it was more than 10000 nM. The same compound came in with a concentration giving a half-maximal response (EC50) in assay [7] of 88 nM. Also, in assay [6], the inhibition at 10 µM stood at 40.7%.
